These results are taken from BindingDB's records for doi:10.1021/jm0203130 (Merck Research Laboratories, 2002).

Chain of Integrin alpha-IIb/beta-3 (P05106 27-788 limits assumed): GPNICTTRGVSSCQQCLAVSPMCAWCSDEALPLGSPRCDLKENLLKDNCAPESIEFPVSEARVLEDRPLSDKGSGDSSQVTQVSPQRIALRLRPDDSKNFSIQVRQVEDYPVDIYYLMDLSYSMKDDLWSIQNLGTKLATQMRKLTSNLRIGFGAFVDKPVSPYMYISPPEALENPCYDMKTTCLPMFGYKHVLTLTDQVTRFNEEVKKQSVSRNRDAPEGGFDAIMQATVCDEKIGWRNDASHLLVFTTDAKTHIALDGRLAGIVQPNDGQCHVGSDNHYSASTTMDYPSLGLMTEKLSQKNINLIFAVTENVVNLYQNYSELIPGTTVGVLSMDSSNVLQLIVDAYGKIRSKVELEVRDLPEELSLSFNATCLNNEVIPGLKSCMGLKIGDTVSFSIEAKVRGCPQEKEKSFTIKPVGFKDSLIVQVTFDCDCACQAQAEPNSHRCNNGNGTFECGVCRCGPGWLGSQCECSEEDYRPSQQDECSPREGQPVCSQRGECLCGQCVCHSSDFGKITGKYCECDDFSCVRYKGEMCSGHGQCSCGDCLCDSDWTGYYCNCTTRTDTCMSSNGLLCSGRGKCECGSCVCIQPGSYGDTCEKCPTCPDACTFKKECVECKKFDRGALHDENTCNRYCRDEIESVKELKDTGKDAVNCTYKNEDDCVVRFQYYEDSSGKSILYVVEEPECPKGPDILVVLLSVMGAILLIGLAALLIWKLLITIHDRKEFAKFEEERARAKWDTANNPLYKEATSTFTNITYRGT
Chain of Integrin alpha-IIb/beta-3 (P08514 32-887 limits assumed): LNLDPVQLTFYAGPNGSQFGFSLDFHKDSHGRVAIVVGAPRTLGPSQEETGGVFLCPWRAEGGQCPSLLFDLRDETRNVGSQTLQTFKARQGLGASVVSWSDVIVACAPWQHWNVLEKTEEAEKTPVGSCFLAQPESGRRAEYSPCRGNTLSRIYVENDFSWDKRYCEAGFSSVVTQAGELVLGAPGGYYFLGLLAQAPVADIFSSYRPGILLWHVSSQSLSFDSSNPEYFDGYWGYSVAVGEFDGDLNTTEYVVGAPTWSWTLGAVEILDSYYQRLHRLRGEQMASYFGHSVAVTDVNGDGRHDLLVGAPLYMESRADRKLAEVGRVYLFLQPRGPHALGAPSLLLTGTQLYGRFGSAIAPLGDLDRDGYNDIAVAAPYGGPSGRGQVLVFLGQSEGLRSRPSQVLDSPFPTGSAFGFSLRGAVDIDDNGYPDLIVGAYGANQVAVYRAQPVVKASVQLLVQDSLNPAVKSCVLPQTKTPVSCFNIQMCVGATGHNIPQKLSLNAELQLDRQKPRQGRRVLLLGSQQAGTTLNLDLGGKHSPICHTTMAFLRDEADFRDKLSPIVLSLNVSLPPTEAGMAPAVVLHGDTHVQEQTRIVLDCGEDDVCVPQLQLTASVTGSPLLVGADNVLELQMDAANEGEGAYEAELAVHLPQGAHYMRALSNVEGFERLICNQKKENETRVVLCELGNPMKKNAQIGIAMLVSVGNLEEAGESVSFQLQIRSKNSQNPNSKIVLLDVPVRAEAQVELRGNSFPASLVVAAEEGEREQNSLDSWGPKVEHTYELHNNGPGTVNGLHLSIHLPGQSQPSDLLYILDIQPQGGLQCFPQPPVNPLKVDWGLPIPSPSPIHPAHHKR
Chain of Integrin alpha-IIb/beta-3 (P08514 891-1039 limits assumed): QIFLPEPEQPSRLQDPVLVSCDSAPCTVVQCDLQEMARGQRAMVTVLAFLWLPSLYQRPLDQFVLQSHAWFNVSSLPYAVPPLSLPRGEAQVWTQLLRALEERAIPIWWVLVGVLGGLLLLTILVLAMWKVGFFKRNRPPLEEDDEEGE

This assay addresses Integrin alpha-IIb/beta-3 (Homo sapiens, UniProt P08514+P05106). Description: Inhibition of integrin alphaIIb-beta3 in platelet aggregation assay.
`O=C(O)C[C@H](NC(=O)CN1CCC(CCc2ccc3c(n2)NCCC3)C1=O)c1cnc2ccccc2c1` (some centres not stated) [3-(2-{2-Oxo-3-[2-(5,6,7,8-tetrahydro-[1,8]naphthyridin-2-yl)-ethyl]-pyrrolidin-1-yl}-acetylamino)-3-quinolin-3-yl-propionic acid]: half-maximal inhibition (IC50) required 776 nM.
The figure for `O=C(O)CCNC(=O)CNC(=O)CCCc1ccc2c(n1)NCCC2` [3-[2-(4-5,6,7,8-Tetrahydro-[1,8]naphthyridin-2-yl-butyrylamino)-acetylamino]-propionic acid] is greater than 10000 nM; for `O=C(NC[C@H](NS(=O)(=O)c1ccccc1)C(=O)O)c1ccc(CCc2ccc3c(n2)NCCC3)cc1` [2-Benzenesulfonylamino-3-{4-[2-(5,6,7,8-tetrahydro-[1,8]naphthyridin-2-yl)-ethyl]-benzoylamino}-propionic acid] it is 260 nM.
As for `O=C(O)C[C@H](NC(=O)CN1CCC(CCc2ccc3c(n2)NCCC3)C1=O)c1cccnc1` (some centres not stated) [3-(2-{2-Oxo-3-[2-(5,6,7,8-tetrahydro-[1,8]naphthyridin-2-yl)-ethyl]-pyrrolidin-1-yl}-acetylamino)-3-pyridin-3-yl-propionic acid], the concentration for half-maximal inhibition (IC50) is greater than 10000 nM.
The same measure for `CNc1cccc(CCOc2ccc3c(c2)CN(CC(F)(F)F)C(=O)[C@H](CC(=O)O)C3)n1` [[(S)-8-[2-(6-Methylamino-pyridin-2-yl)-ethoxy]-3-oxo-2-(2,2,2-trifluoro-ethyl)-2,3,4,5-tetrahydro-1H-benzo[c]azepin-4-yl]-acetic acid]: greater than 10000 nM; for `O=C(O)C[C@H](NC(=O)CNC(=O)CCCc1ccc2c(n1)NCCC2)c1cccnc1` [(S)-3-Pyridin-3-yl-3-[2-(4-5,6,7,8-tetrahydro-[1,8]naphthyridin-2-yl-butyrylamino)-acetylamino]-propionic acid]: greater than 10000 nM.
The same measure for `Nc1cccc(CCc2ccc(C(=O)NC[C@H](NS(=O)(=O)c3ccc(I)cc3)C(=O)O)cc2)n1` [3-{4-[2-(6-Amino-pyridin-2-yl)-ethyl]-benzoylamino}-2-(4-iodo-benzenesulfonylamino)-propionic acid]: 1600 nM.
